One experiment addresses MLKL (full length) (Homo sapiens (Human), UniProt Q8NB16). Description: KINOMEscan binding assay, MLKL (full length). As to the method:
(§1) Kinase assays. For most assays, kinase-tagged T7 phage strains were grown in parallel in 24-well blocks in an E. coli host derived from the BL21 strain. E. coli were grown to log-phase and infected with T7 phage from a frozen stock (multiplicity of infection=0.4) and incubated with shaking at 32° C. until lysis (90-150 minutes).
(§2) The Hill Slope was set to −1.

In a further experiment the target is RIP1 (Homo sapiens (Human), UniProt Q13546). In words: KINOMEscan binding assay, RIP1. The following applies: Table 35.
RIP1, sequence (Q13546 whole entry): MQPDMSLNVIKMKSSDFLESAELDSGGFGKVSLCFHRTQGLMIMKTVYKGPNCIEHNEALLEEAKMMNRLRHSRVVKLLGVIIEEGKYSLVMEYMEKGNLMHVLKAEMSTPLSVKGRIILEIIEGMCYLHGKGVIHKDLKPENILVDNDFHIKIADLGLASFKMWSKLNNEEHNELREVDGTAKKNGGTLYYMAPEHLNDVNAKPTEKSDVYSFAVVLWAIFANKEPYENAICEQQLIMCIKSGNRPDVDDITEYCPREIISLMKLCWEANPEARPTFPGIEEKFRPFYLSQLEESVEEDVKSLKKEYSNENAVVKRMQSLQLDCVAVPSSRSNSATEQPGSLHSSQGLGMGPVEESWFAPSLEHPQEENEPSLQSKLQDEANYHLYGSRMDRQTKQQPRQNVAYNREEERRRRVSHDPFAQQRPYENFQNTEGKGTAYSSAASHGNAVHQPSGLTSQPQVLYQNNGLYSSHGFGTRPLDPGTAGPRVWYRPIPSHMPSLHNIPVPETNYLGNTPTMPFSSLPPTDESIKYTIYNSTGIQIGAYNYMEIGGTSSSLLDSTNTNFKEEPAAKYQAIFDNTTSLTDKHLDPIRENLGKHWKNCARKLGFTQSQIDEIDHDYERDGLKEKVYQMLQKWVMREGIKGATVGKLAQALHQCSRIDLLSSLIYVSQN
The next experiment deals with RIP3 (Homo sapiens (Human), UniProt Q9Y572). Description: KINOMEscan binding assay, RIP3. The conditions noted are these: Table 35. As to the method: as §1, §2
RIP3, sequence (Q9Y572 whole entry): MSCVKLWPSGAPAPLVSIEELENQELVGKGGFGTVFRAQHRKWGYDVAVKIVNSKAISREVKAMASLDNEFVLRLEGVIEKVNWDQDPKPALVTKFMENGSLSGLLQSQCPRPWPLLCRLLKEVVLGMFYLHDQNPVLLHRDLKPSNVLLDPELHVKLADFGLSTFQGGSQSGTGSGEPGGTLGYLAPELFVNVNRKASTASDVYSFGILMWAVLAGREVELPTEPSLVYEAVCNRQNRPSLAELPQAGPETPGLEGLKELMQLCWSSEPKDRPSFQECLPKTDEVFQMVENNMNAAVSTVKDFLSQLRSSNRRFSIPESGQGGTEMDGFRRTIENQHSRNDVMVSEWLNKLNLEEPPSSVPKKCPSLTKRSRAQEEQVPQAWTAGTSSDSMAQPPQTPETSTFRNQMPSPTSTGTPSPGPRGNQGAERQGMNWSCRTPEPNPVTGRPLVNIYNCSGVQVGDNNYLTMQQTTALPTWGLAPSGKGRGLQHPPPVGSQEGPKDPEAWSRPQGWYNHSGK
Experiment [1] relates to U937 human histiocytic leukemia cell line. In words: Cellular assay: inhibition of TSQ induced necroptosis (CellTitre-Glo). The following applies: Homo sapiens, U-937, U937 cells, TSQ cocktail, 48 hours, read-out: Inhibition of TSQ-induced necroptosis (IC50 cell-based assay). As to the method: […] ASSAY: Screening compounds for inhibition of TSQ induced necroptosis, 384 well plate format.
Cell Line ID: U937 human histiocytic leukemia cell line.
Cell Concentration (cells/well): Final cell density is 20,000 cells per well.
Cell growth medium: HT-RPMI medium+7.4% Fetal Bovine Serum (FBS). Cells are cultured in Corning 150 cm^z tissue culture flasks with vented caps at 37° C./5% CO2.
Incubation: Plates were incubated at 37° C./5% CO2 in a humidified incubator for 48 hours following addition of compounds and death stimuli (TSQ cocktail).
Compound concentration: 36 μM starting concentration, 1:3 dilution, 10 point
DMSO final concentration (% v/v): 0.3%.
Compounds in TSQ cocktail (T: TNF; S: Smac mimetic; Q: Q-VD-OPh) and their final concentrations: • hTNF-Fc (100 ng/ml)—produced by standard procedures as shown in Bossen et al., J Biol Chem, 2006, 281(20), 13964-13971. • Compound A (500 nM)—Smac mimetic, Tetralogic and SYNthesis med chem • Q-VD-OPh (10 μM)—MP Biomedicals
The cellular assay was carried out according to the following steps: • 1. Each well was prepared by sequential addition of: • a. DMSO (control; columns 1-2 and 23-24) or compound in DMSO—addition was performed using acoustic transfer of nl volumes of stock compound to give final test concentrations of 36, 12, 4, 1.3, 0.44, 0.148, 0.049, 0.016, 0.005 and 0.002 μM. All wells were backfilled with DMSO to a final total volume in the well of 100 nl. • b. Following compound/DMSO addition in step (a), 40 μL of cell suspension (5×10^5 cells/mL) was added to provide a final cell concentration of 20,000 cells per well, and • c. Following cell addition in step (b), 10 μL of 5×TSQ cocktail (except to positive controls; […]) was added to each well. • 2. After 48 hours, plate was removed from the 37° C. incubator and equilibrated to room temperature for 45 minutes. • 3. 15 μL of room temperature CellTitre-Glo2™ (Promega™) was added to each well. • 4. Shook plates for 2 minutes (˜600 rpm) and incubated at room temperature for 15 minutes to allow signal to stabilise. • 5. Read luminescence readout on a plate reader.
Percent viability was calculated for each compound according to equation (2):
[formula] • wherein • RawData is the readout of any cell containing a compound of the invention • TA is the total activity provided by the luminescence readout from DMSO only wells (columns 2 and 24)=100% viability • NSA is the non-specific activity provided by DMSO+TSQ wells (columns 1 and 23)=0% viability
Curve fitting: 10-point titration curves are fitted with the 4-parameter logistic nonlinear regression model and the IC50 reported is the inflection point of the curve.
Analysis: Data was loaded into Dotmatics™ and visualised using the Tibco® Spotfire™ software. 10 points titration curves were fitted with the 4-parameter logistic nonlinear regression model and the IC50 reported reflect the inflection point of the curve for curve fitting.
Assay involving the TSQ cocktail (T: TNF; S: Smac mimetic; Q: Q-VD-OPh): TSQ treatment ensures that cells specifically undergo necroptotic cell death. TNF activates the TNF receptor, Smac mimetic directs the signal away from proinflammatory signaling and toward the RIP1/RIP3-mediated cell death pathways, and Q-VD-OPh ensures that the apoptotic response is blocked leaving only the programmed necrosis response. The compounds' activity (solution in DMSO) tested in this TSQ-induced assay was evaluated by determining the number of viable cells in culture by measuring the amount of ATP present as measured by CelltiterGlo.

Another experiment relates to U937 cells. Description: Counter screen: cell viability without TSQ cocktail (off-target effect). Also on record: species or system human. The conditions noted are these: Homo sapiens. How it is done:
Counter screen: In parallel, all compounds were tested for their ability to affect cell viability. The same U937 cells were treated with compound in DMSO without the TSQ cocktail. This counter screen enabled evaluation of off-target effects. In this case, cell viability was measured by CelltiterGlo.

Where [2] appears, read: U-937, Table 37, read-out: Off-target effect (IC50 cell-based assay).
Where [3] appears, read: U-937, Table 38, read-out: Off-target effect (IC50 cell-based assay).

Where two headings read alike, the source gives them in different places.

MLKL (full length), sequence (Q8NB16 whole entry): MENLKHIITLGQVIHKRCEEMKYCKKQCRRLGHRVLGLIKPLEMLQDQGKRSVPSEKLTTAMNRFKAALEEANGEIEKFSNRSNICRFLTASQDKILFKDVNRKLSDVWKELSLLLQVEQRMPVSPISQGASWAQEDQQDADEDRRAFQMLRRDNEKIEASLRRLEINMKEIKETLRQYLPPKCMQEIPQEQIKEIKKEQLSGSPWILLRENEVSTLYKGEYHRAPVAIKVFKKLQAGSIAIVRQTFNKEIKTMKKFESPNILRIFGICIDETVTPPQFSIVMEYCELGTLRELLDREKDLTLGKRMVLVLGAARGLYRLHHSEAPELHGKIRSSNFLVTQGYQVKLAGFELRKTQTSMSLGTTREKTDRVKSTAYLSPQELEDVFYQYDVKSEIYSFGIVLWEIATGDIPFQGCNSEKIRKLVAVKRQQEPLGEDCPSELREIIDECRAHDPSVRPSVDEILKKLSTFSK

Consider `NC(=O)c1c(-c2ccc(NS(=O)(=O)Cc3cccc(Cl)c3)cc2)n[nH]c1Nc1cccc(C(F)(F)F)n1` [Compound 9, 3-(4-(((3-chlorophenyl)methyl)sulfonamido)phenyl)-5-((6-(trifluoromethyl)pyridin-2-yl)amino)-1H-pyrazole-4-carboxamide], for which the values for the Kd at MLKL (full length) (Table 35), on RIP1 and on RIP3 were less than 10 nM, more than 30000 nM and more than 30000 nM, respectively. Also, the IC50 in experiment [1] (Table 37) is 10 to 1000 nM; in the experiment with U937 cells (setting [2]) it was more than 30000 nM.
With `CCS(=O)(=O)Nc1ccc(-c2n[nH]c(Nc3cncc(C)n3)c2C(N)=O)cc1` [Compound 84, 3-(4-(ethylsulfonamido)phenyl)-5-((6-methylpyrazin-2-yl)amino)-1H-pyrazole-4-carboxamide], the Kd on MLKL (full length) (Table 35) was less than 10 nM; at RIP1, more than 30000 nM; at RIP3, 1000 to 30000 nM. Besides, the IC50 in experiment [1] (Table 37) is 1000 to 30000 nM; with U937 cells (setting [2]), more than 30000 nM.
For the compound `CCS(=O)(=O)Nc1ccc(-c2c(C(N)=O)c(Nc3cnccn3)nn2C)cc1` [Compound 222, 5-(4-(ethylsulfonamido)phenyl)-1-methyl-3-(pyrazin-2-ylamino)-1H-pyrazole-4-carboxamide], the results for the Kd at MLKL (full length) (Table 35), on RIP1 and at RIP3 were less than 10 nM, more than 30000 nM and more than 30000 nM, respectively. The IC50 in experiment [1] (Table 37) was 1000 to 30000 nM; in the experiment with U937 cells (setting [2]) it was more than 30000 nM.
Take `Cc1ncsc1-c1ccc(CNC(=O)[C@@H]2C[C@@H](O)CN2C(=O)[C@@H](NC(=O)COCCOCCn2ccc(Nc3[nH]nc(-c4ccc(NS(=O)(=O)C(F)F)c(O[C@@H](C)c5ccc(F)cc5)c4)c3C(N)=O)n2)C(C)(C)C)cc1` [Compound 1037, 3-[4-(difluoromethanesulfonamido)-3-[(1S)-1-(4-fluorophenyl)ethoxy]phenyl]-5-[(1-{2-[2-({[(2S)-1-[(2S,4R)-4-hydroxy-2-({[4-(4-methyl-1,3-thiazol-5-yl)phenyl]methyl}carbamoyl)pyrrolidin-1-yl]-3,3-dimethyl-1-oxobutan-2-yl]carbamoyl}methoxy)ethoxy]ethyl}-1H-pyrazol-3-yl)amino]-1H-pyrazole-4-carboxamide]: the Kd at MLKL (full length) (Table 36) was less than 10 nM. Also, the IC50 was less than 1000 nM in experiment [1] (Table 38) and more than 10000 nM with U937 cells (setting [3]).
In turn, `CCS(=O)(=O)Nc1ccc(-c2n[nH]c(Nc3ccc(C(=O)OCCOCC(=O)N[C@H](C(=O)N4C[C@H](O)C[C@H]4C(=O)NCc4ccc(-c5scnc5C)cc4)C(C)(C)C)cn3)c2C(N)=O)cc1O[C@@H](C)c1ccc(F)cc1` [Compound 1046, 2-({[(2S)-1-[(2S,4R)-4-hydroxy-2-({[4-(4-methyl-1,3-thiazol-5-yl)phenyl]methyl}carbamoyl)pyrrolidine-1-yl]-3,3-dimethyl-1-oxobutan-2-yl]carbamoyl}methoxy)ethyl 6-[(4-carbamoyl-3-{4-ethanesulfonamido-3-[(1S)-1-(4-fluorophenyl)ethoxy]phenyl}-1H-pyrazol-5-yl)amino]pyridine-3-carboxylate] registered a dissociation constant Kd at MLKL (full length) (Table 36) of 10 to 1000 nM. The 50% inhibitory concentration (IC50) was less than 1000 nM in experiment [1] (Table 38) and more than 10000 nM in the experiment with U937 cells (setting [3]).
The matching figures for `Cc1ncsc1-c1ccc(CNC(=O)[C@@H]2C[C@@H](O)CN2C(=O)[C@@H](NC(=O)CCCCC#Cc2ccc(Nc3[nH]nc(-c4ccc(NS(=O)(=O)C(F)F)c(O[C@@H](C)c5ccc(F)cc5)c4)c3C(N)=O)nc2)C(C)(C)C)cc1` [Compound 1047, 3-[4-(difluoromethanesulfonamido)-3-[(1 S)-1-(4-fluorophenyl)ethoxy]phenyl]-5-{[5-(6-{[(2S)-1-[(2S,4R)-4-hydroxy-2-({[4-(4-methyl-1,3-thiazol-5-yl)phenyl]methyl}carbamoyl)pyrrolidin-1-yl]-3,3-dimethyl-1-oxobutan-2-yl]carbamoyl}hex-1-yn-1-yl)pyridin-2-yl]amino}-1H-pyrazole-4-carboxamide]: 10 to 1000 nM, less than 1000 nM and 1000 to 10000 nM.
For `Cc1ncsc1-c1ccc(CNC(=O)[C@@H]2C[C@@H](O)CN2C(=O)[C@@H](NC(=O)CCCCOC(=O)c2ccc(Nc3[nH]nc(-c4ccc(NS(=O)(=O)C(F)F)cc4)c3C(N)=O)nc2)C(C)(C)C)cc1` [Compound 1049, 4-{[(2S)-1-[(2S,4R)-4-hydroxy-2-({[4-(4-methyl-1,3-thiazol-5-yl)phenyl]methyl}carbamoyl)pyrrolidine-1-yl]-3,3-dimethyl-1-oxobutan-2-yl]carbamoyl}butyl 6-({4-carbamoyl-3-[4-(difluoromethanesulfonamido)phenyl]-1H-pyrazol-5-yl}amino)pyridine-3-carboxylate] the same measures were less than 10 nM, 1000 to 10000 nM and more than 10000 nM.
Regarding `CCS(=O)(=O)Nc1ccc(-c2n[nH]c(Nc3ccc(C(=O)OCCCCC(=O)N[C@H](C(=O)N4C[C@H](O)C[C@H]4C(=O)NCc4ccc(-c5scnc5C)cc4)C(C)(C)C)cn3)c2C(N)=O)cc1OCc1ccc(F)cc1` [Compound 1052, 4-{[(2S)-1-[(2S,4R)-4-hydroxy-2-{{[4-(4-methyl-1,3-thiazol-5-yl)phenyl]methyl}carbamoyl)pyrrolidin-1-yl]-3,3-dimethyl-1-oxobutan-2-yl]carbamoyl}butyl 6-[(4-carbamoyl-3-{4-ethanesulfonamido-3-[(4-fluorophenyl)methoxy]phenyl}-1H-pyrazol-5-yl)amino]pyridine-3-carboxylate], the dissociation constant Kd on MLKL (full length) (Table 36) fell in the range of 1000 to 30000 nM. For the same compound, the half-inhibitory concentration (IC50) (in experiment [1] (Table 38); with U937 cells (setting [3])) was more than 10000 nM throughout.
As to `Cc1ncsc1-c1ccc(CNC(=O)[C@@H]2C[C@@H](O)CN2C(=O)[C@@H](NC(=O)CCCCOC(=O)c2ccc(Nc3[nH]nc(-c4ccc(NS(=O)(=O)C(F)F)c(OCc5ccc(F)cc5)c4)c3C(N)=O)nc2)C(C)(C)C)cc1` [Compound 1055, 4-{[(2S)-1-[(2S,4R)-4-hydroxy-2-({[4-(4-methyl-1,3-thiazol-5-yl)phenyl]methyl}carbamoyl)pyrrolidin-1-yl]-3,3-dimethyl-1-oxobutan-2-yl]carbamoyl}butyl 6-({4-carbamoyl-3-[4-(difluoromethanesulfonamido)-3-[(4-fluorophenyl)methoxy]phenyl]-1H-pyrazol-5-yl}amino)pyridine-3-carboxylate], the Kd at MLKL (full length) (Table 36) was 10 to 1000 nM. Besides, the half-inhibitory concentration (IC50) in experiment [1] (Table 38) is less than 1000 nM; in the experiment with U937 cells (setting [3]), more than 10000 nM.
As to `CCS(=O)(=O)Nc1ccc(-c2n[nH]c(Nc3ccc(C(=O)OCCCCC(=O)N[C@H](C(=O)N4C[C@H](O)C[C@H]4C(=O)NCc4ccc(-c5scnc5C)cc4)C(C)(C)C)cn3)c2C(N)=O)cc1` [Compound 1060, 4-{[(2S)-1-[(2S,4R)-4-hydroxy-2-({[4-(4-methyl-1,3-thiazol-5-yl)phenyl]methyl}carbamoyl)pyrrolidin-1-yl]-3,3-dimethyl-1-oxobutan-2-yl]carbamoyl}butyl 6-{[4-carbamoyl-3-(4-ethanesulfonamidophenyl)-1H-pyrazol-5-yl]amino}pyridine-3-carboxylate], on MLKL (full length) (Table 36), the Kd was in the range of 10 to 1000 nM. Further, the IC50 in experiment [1] (Table 38) is less than 1000 nM; with U937 cells (setting [3]), more than 10000 nM.

The values above are taken from US20250074891A1 (Anaxis Pharma Pty Ltd., priority 2021, published 2025).
